Source: patent publication US6706663B2, “Herbicidal 3-heterocyclic substituted benzisothiazole and benzisoxazole compounds” (Wyeth, priority 2000, dated 2004)

Assays:
[1] = test system: ZEAMX (Corn, Field); test: Postemergence herbicidal evaluation; type: in vivo, Zea mays, L.; conditions: postemergence
Method in brief: (§1)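 Seedlings grown about two weeks in flats, sprayed, then kept under standard greenhouse care. Rated visually 4–5 weeks after treatment on a 0–9 scale (stand, vigour, malformation, size, chlorosis, overall appearance) relative to untreated control; repeat tests averaged.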

[2] = test system: SAGPY (Sagittaria pygmaea); test: Flooded paddy, preemergence weed control; type: in vivo, L.; conditions: rated 3-4 weeks after treatment, 0-9 rating scale
Method in brief: (§2)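 Greenhouse paddy test, preemergence. Seeds planted in the top 0.5 cm of silt loam soil, which remained flooded at 1.5–3 cm depth. Scored 0-9 by visual comparison with control.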

[3] = test system: AMBEL (Ambrosia artemisifolia); test: Postemergence herbicidal evaluation; type: in vivo, L.; conditions: postemergence
Method in brief: as §1

[4] = test system: CASOB (Cassia obtusifolia); test: Postemergence herbicidal evaluation; type: in vivo, L.; conditions: postemergence
Method in brief: as §1

[5] = test system: CHEAL (Chenopodium album); test: Postemergence herbicidal evaluation; type: in vivo, L.; conditions: postemergence
Method in brief: as §1

[6] = test system: GLXMAW (Soybean, Williams); test: Preemergence herbicidal evaluation; type: in vivo, Glycine max, (L.) Merr. cv Williams; conditions: rated 4-5 weeks after treatment
[7] = test system: ORYSAT (Rice, Tebonnet); test: Preemergence herbicidal evaluation; type: in vivo, Oryza sativa, (L.) Tebonnet; conditions: rated 4-5 weeks after treatment
[8] = test system: IPOHE (Ipomoea hederacea); test: Preemergence herbicidal evaluation; type: in vivo, (L.) Jacq.; conditions: rated 4-5 weeks after treatment
[9] = test system: ECHORC (Echinochloa oryzoides); test: Flooded paddy, preemergence weed control; type: in vivo, Echinochloa oryzoides (Ard.) Fritsch.; conditions: rated 3-4 weeks after treatment, 0-9 rating scale
Method in brief: as §2

[10] = test system: ORYSAT (Rice, Tebonnet); test: Postemergence herbicidal evaluation; type: in vivo, Oryza sativa, (L.) Tebonnet; conditions: postemergence
Method in brief: as §1

[11] = test system: TRZAWR (Wheat, Winter, cv Riband); test: Preemergence herbicidal evaluation; type: in vivo, Triticum aestivum; conditions: rated 4-5 weeks after treatment
Method in brief: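 Seeds planted in potting soil cups and sprayed preemergence with aqueous acetone compound solution. Greenhouse-grown; rated 4–5 weeks after treatment on a 0-9 visual scale (stand, vigor, malformation, size, chlorosis, appearance) versus control.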

[12] = test system: CYPIR (Cyperus iria); test: Flooded paddy, preemergence weed control; type: in vivo; conditions: rated 3-4 weeks after treatment, 0-9 rating scale
Method in brief: as §2

[13] = test system: ECHCG (Echinochloa crus-galli); test: Postemergence herbicidal evaluation; type: in vivo, (L.) Beau; conditions: postemergence
Method in brief: as §1

## C[C@@H]1C[C@H](C)OC(c2nsc3cc(F)c(-n4c(=O)cc(C(F)(F)F)n(C)c4=O)cc23)O1 (stereo partly drawn) [Compound 67, 3-[3-[(4R,6S)-4,6-dimethyl-m-dioxan-2-yl]-6-fluoro-1,2-benzisothiazol-5-yl]-1-methyl-6-(trifluoromethyl)uracil]
[1]; rate 0.0320 kg/ha
  ZEAMX herbicidal rating: 5.5
[1]; rate 0.0620 kg/ha
  ZEAMX herbicidal rating: 6.0
[2]; rate 0.0080 kg/ha
  herbicidal rating, SAGPY: 1.5
[2]; rate 0.0320 kg/ha
  herbicidal rating, SAGPY: 7.0
[2]; rate 0.1250 kg/ha
  herbicidal rating, SAGPY: 7.0
[3]; rate 0.0320 kg/ha
  AMBEL herbicidal rating: 9.0
[3]; rate 0.0620 kg/ha
  AMBEL herbicidal rating: 9.0
[4]; rate 0.0320 kg/ha
  CASOB herbicidal rating: 9.0
[4]; rate 0.0620 kg/ha
  CASOB herbicidal rating: 9.0
[5]; rate 0.0320 kg/ha
  CHEAL herbicidal rating: 9.0
[5]; rate 0.0620 kg/ha
  CHEAL herbicidal rating: 9.0
[6]; Rate 0.0620 kg/ha
  Preemergence herbicidal rating GLXMAW: 9.0
[6]; Rate 0.1250 kg/ha
  Preemergence herbicidal rating GLXMAW: 9.0
[7]; Rate 0.0620 kg/ha
  Preemergence herbicidal rating ORYSAT: 9.0
[7]; Rate 0.1250 kg/ha
  Preemergence herbicidal rating ORYSAT: 9.0
[8]; Rate 0.0620 kg/ha
  Preemergence herbicidal rating IPOHE: 7.0
[8]; Rate 0.1250 kg/ha
  Preemergence herbicidal rating IPOHE: 9.0
[9]; rate 0.0080 kg/ha
  herbicidal rating, ECHORC: 4.5
[9]; rate 0.0320 kg/ha
  herbicidal rating, ECHORC: 9.0
[9]; rate 0.1250 kg/ha
  herbicidal rating, ECHORC: 9.0
[10]; rate 0.0320 kg/ha
  ORYSAT herbicidal rating: 4.5
[10]; rate 0.0620 kg/ha
  ORYSAT herbicidal rating: 5.5
[11]; Rate 0.0620 kg/ha
  Preemergence herbicidal rating TRZAWR: 9.0
[11]; Rate 0.1250 kg/ha
  Preemergence herbicidal rating TRZAWR: 9.0
[12]; rate 0.0080 kg/ha
  herbicidal rating, CYPIR: 4.5
[12]; rate 0.0320 kg/ha
  herbicidal rating, CYPIR: 7.0
[12]; rate 0.1250 kg/ha
  herbicidal rating, CYPIR: 9.0
[13]; rate 0.0320 kg/ha
  ECHCG herbicidal rating: 3.0
[13]; rate 0.0620 kg/ha
  ECHCG herbicidal rating: 4.0

## Cc1sccc1-c1nsc2ccc(-n3c(=O)cc(C(F)(F)F)n(C)c3=O)cc12 [Compound 68, 2,4(1H,3H)-pyrimidinedione, 1-methyl-3-[3-(2-methyl-3-thienyl)-1,2-benzisothiazol-5-yl]-6-(trifluoromethyl)-]
[1]; rate 0.0320 kg/ha
  ZEAMX herbicidal rating: 5.5
[1]; rate 0.0620 kg/ha
  ZEAMX herbicidal rating: 6.0
[2]; rate 0.0080 kg/ha
  herbicidal rating, SAGPY: 0.0
[2]; rate 0.0320 kg/ha
  herbicidal rating, SAGPY: 0.0
[2]; rate 0.1250 kg/ha
  herbicidal rating, SAGPY: 9.0
[3]; rate 0.0320 kg/ha
  AMBEL herbicidal rating: 9.0
[3]; rate 0.0620 kg/ha
  AMBEL herbicidal rating: 9.0
[4]; rate 0.0320 kg/ha
  CASOB herbicidal rating: 5.0
[4]; rate 0.0620 kg/ha
  CASOB herbicidal rating: 6.0
[5]; rate 0.0320 kg/ha
  CHEAL herbicidal rating: 9.0
[5]; rate 0.0620 kg/ha
  CHEAL herbicidal rating: 9.0
[6]; Rate 0.0620 kg/ha
  Preemergence herbicidal rating GLXMAW: 1.5
[6]; Rate 0.1250 kg/ha
  Preemergence herbicidal rating GLXMAW: 3.0
[6]; Rate 0.2500 kg/ha
  Preemergence herbicidal rating GLXMAW: 7.5
[7]; Rate 0.0620 kg/ha
  Preemergence herbicidal rating ORYSAT: 2.0
[7]; Rate 0.1250 kg/ha
  Preemergence herbicidal rating ORYSAT: 3.5
[7]; Rate 0.2500 kg/ha
  Preemergence herbicidal rating ORYSAT: 5.0
[8]; Rate 0.0620 kg/ha
  Preemergence herbicidal rating IPOHE: 1.5
[8]; Rate 0.1250 kg/ha
  Preemergence herbicidal rating IPOHE: 3.0
[8]; Rate 0.2500 kg/ha
  Preemergence herbicidal rating IPOHE: 4.5
[9]; rate 0.0080 kg/ha
  herbicidal rating, ECHORC: 7.0
[9]; rate 0.0320 kg/ha
  herbicidal rating, ECHORC: 8.5
[9]; rate 0.1250 kg/ha
  herbicidal rating, ECHORC: 9.0
[10]; rate 0.0320 kg/ha
  ORYSAT herbicidal rating: 4.0
[10]; rate 0.0620 kg/ha
  ORYSAT herbicidal rating: 5.0
[11]; Rate 0.0620 kg/ha
  Preemergence herbicidal rating TRZAWR: 2.0
[11]; Rate 0.1250 kg/ha
  Preemergence herbicidal rating TRZAWR: 5.0
[11]; Rate 0.2500 kg/ha
  Preemergence herbicidal rating TRZAWR: 7.0
[12]; rate 0.0080 kg/ha
  herbicidal rating, CYPIR: 0.0
[12]; rate 0.0320 kg/ha
  herbicidal rating, CYPIR: 9.0
[12]; rate 0.1250 kg/ha
  herbicidal rating, CYPIR: 9.0
[13]; rate 0.0320 kg/ha
  ECHCG herbicidal rating: 4.0
[13]; rate 0.0620 kg/ha
  ECHCG herbicidal rating: 5.0

## Cn1c(C(F)(F)F)cc(=O)n(-c2ccc3snc(C4OCC5(CO4)CO5)c3c2)c1=O (stereo not shown) [Compound 70, 1-methyl-3-(3-spiro[m-dioxane-5,2′-oxiran]-2-yl-1,2-benzisothiazol-5-yl)-6-(trifluoromethyl)uracil]
[1]; rate 0.0320 kg/ha
  ZEAMX herbicidal rating: 6.5
[1]; rate 0.0620 kg/ha
  ZEAMX herbicidal rating: 7.0
[2]; rate 0.0080 kg/ha
  herbicidal rating, SAGPY: 0.0
[2]; rate 0.0320 kg/ha
  herbicidal rating, SAGPY: 0.0
[2]; rate 0.1250 kg/ha
  herbicidal rating, SAGPY: 0.0
[3]; rate 0.0320 kg/ha
  AMBEL herbicidal rating: 9.0
[3]; rate 0.0620 kg/ha
  AMBEL herbicidal rating: 9.0
[4]; rate 0.0320 kg/ha
  CASOB herbicidal rating: 5.0
[4]; rate 0.0620 kg/ha
  CASOB herbicidal rating: 5.0
[5]; rate 0.0320 kg/ha
  CHEAL herbicidal rating: 9.0
[5]; rate 0.0620 kg/ha
  CHEAL herbicidal rating: 9.0
[6]; Rate 0.0620 kg/ha
  Preemergence herbicidal rating GLXMAW: 3.0
[6]; Rate 0.1250 kg/ha
  Preemergence herbicidal rating GLXMAW: 9.0
[7]; Rate 0.0620 kg/ha
  Preemergence herbicidal rating ORYSAT: 3.0
[7]; Rate 0.1250 kg/ha
  Preemergence herbicidal rating ORYSAT: 6.0
[8]; Rate 0.0620 kg/ha
  Preemergence herbicidal rating IPOHE: 4.0
[8]; Rate 0.1250 kg/ha
  Preemergence herbicidal rating IPOHE: 7.0
[9]; rate 0.0080 kg/ha
  herbicidal rating, ECHORC: 0.0
[9]; rate 0.0320 kg/ha
  herbicidal rating, ECHORC: 0.0
[9]; rate 0.1250 kg/ha
  herbicidal rating, ECHORC: 0.0
[10]; rate 0.0320 kg/ha
  ORYSAT herbicidal rating: 5.0
[10]; rate 0.0620 kg/ha
  ORYSAT herbicidal rating: 6.0
[11]; Rate 0.0620 kg/ha
  Preemergence herbicidal rating TRZAWR: 3.0
[11]; Rate 0.1250 kg/ha
  Preemergence herbicidal rating TRZAWR: 7.0
[12]; rate 0.0080 kg/ha
  herbicidal rating, CYPIR: 0.0
[12]; rate 0.0320 kg/ha
  herbicidal rating, CYPIR: 0.0
[12]; rate 0.1250 kg/ha
  herbicidal rating, CYPIR: 0.0
[13]; rate 0.0320 kg/ha
  ECHCG herbicidal rating: 3.0
[13]; rate 0.0620 kg/ha
  ECHCG herbicidal rating: 4.0

## Cn1c(C(F)(F)F)cc(=O)n(-c2ccc3snc(C4OC(=O)C(C)(C)O4)c3c2)c1=O (stereo not shown) [Compound 71, 3-[3-(4,4-dimethyl-5-oxo-1,3-dioxolan-2-yl)-1,2-benzisothiazol-5-yl]-1-methyl-6-(trifluoromethyl)uracil]
[1]; rate 0.0320 kg/ha
  ZEAMX herbicidal rating: 4.5
[1]; rate 0.0620 kg/ha
  ZEAMX herbicidal rating: 5.0
[2]; rate 0.0080 kg/ha
  herbicidal rating, SAGPY: 0.0
[2]; rate 0.0320 kg/ha
  herbicidal rating, SAGPY: 0.0
[2]; rate 0.1250 kg/ha
  herbicidal rating, SAGPY: 0.0
[3]; rate 0.0320 kg/ha
  AMBEL herbicidal rating: 7.0
[3]; rate 0.0620 kg/ha
  AMBEL herbicidal rating: 6.0
[4]; rate 0.0320 kg/ha
  CASOB herbicidal rating: 0.0
[4]; rate 0.0620 kg/ha
  CASOB herbicidal rating: 2.0
[5]; rate 0.0320 kg/ha
  CHEAL herbicidal rating: 6.0
[5]; rate 0.0620 kg/ha
  CHEAL herbicidal rating: 9.0
[6]; Rate 0.0620 kg/ha
  Preemergence herbicidal rating GLXMAW: 2.5
[6]; Rate 0.1250 kg/ha
  Preemergence herbicidal rating GLXMAW: 4.5
[6]; Rate 0.2500 kg/ha
  Preemergence herbicidal rating GLXMAW: 6.0
[7]; Rate 0.0620 kg/ha
  Preemergence herbicidal rating ORYSAT: 5.5
[7]; Rate 0.1250 kg/ha
  Preemergence herbicidal rating ORYSAT: 8.0
[7]; Rate 0.2500 kg/ha
  Preemergence herbicidal rating ORYSAT: 8.5
[8]; Rate 0.0620 kg/ha
  Preemergence herbicidal rating IPOHE: 7.0
[8]; Rate 0.1250 kg/ha
  Preemergence herbicidal rating IPOHE: 9.0
[8]; Rate 0.2500 kg/ha
  Preemergence herbicidal rating IPOHE: 9.0
[9]; rate 0.0080 kg/ha
  herbicidal rating, ECHORC: 0.0
[9]; rate 0.0320 kg/ha
  herbicidal rating, ECHORC: 0.0
[9]; rate 0.1250 kg/ha
  herbicidal rating, ECHORC: 0.0
[10]; rate 0.0320 kg/ha
  ORYSAT herbicidal rating: 3.0
[10]; rate 0.0620 kg/ha
  ORYSAT herbicidal rating: 4.5
[11]; Rate 0.0620 kg/ha
  Preemergence herbicidal rating TRZAWR: 4.0
[11]; Rate 0.1250 kg/ha
  Preemergence herbicidal rating TRZAWR: 7.0
[11]; Rate 0.2500 kg/ha
  Preemergence herbicidal rating TRZAWR: 8.0
[12]; rate 0.0080 kg/ha
  herbicidal rating, CYPIR: 0.0
[12]; rate 0.0320 kg/ha
  herbicidal rating, CYPIR: 0.0
[12]; rate 0.1250 kg/ha
  herbicidal rating, CYPIR: 0.0
[13]; rate 0.0320 kg/ha
  ECHCG herbicidal rating: 1.0
[13]; rate 0.0620 kg/ha
  ECHCG herbicidal rating: 3.0
